# Source: PubChem BioAssay (NCI)
#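 At the GI50, growth is halved. TGI is the concentration that stops growth completely.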
# What was measured:
# Assay in all cases: NCI anticancer screen, dose series, 384-well format
# [1] = tested on: IGROV1 ovarian
# [2] = tested on: SNB-75 CNS
# [3] = tested on: SN12C renal
# [4] = tested on: SF-295 CNS
# [5] = tested on: SK-MEL-5 melanoma
# [6] = tested on: OVCAR-5 ovarian
# [7] = tested on: MDA-MB-231 breast
# [8] = tested on: HCT-15 colon
# [9] = tested on: HT29 colon
# [10] = tested on: NCI-H226 lung
# [11] = tested on: TK-10 renal
# [12] = tested on: OVCAR-8 ovarian
# [13] = tested on: RPMI-8226 leukemia
# [14] = tested on: EKVX NSCLC
# [15] = tested on: COLO 205 colon
# [16] = tested on: A498 renal
# [17] = tested on: NCI/ADR-RES ovarian
# [18] = tested on: DU-145 prostate
# [19] = tested on: OVCAR-4 ovarian
# [20] = tested on: A549 NSCLC
# [21] = tested on: T-47D breast
# [22] = tested on: UACC-257 melanoma
# [23] = tested on: BT-549 breast
# [24] = tested on: HOP-92 NSCLC
# [25] = tested on: PC-3 prostate
# [26] = tested on: SNB-19 CNS
# [27] = tested on: SK-OV-3 ovarian
# [28] = tested on: 786-0 renal
# [29] = tested on: MCF7 breast
# [30] = tested on: SF-268 CNS
# [31] = tested on: MDA-MB-468 breast
# [32] = tested on: HCT-116 colon
# [33] = tested on: NCI-H460 NSCLC
# [34] = tested on: MDA-MB-435 melanoma
# [35] = tested on: HCC-2998 colon
# [36] = tested on: CCRF-CEM leukemia
# [37] = tested on: OVCAR-3 ovarian
# [38] = tested on: SR leukemia
# [39] = tested on: M14 melanoma
# [40] = tested on: NCI-H522 lung
# [41] = tested on: SW-620 colon
# [42] = tested on: NCI-H322M lung
# [43] = tested on: RXF 393 renal
# [44] = tested on: MOLT-4 leukemia
# [45] = tested on: ACHN renal
# [46] = tested on: HS 578T breast
# [47] = tested on: HOP-62 NSCLC
# [48] = tested on: MALME-3M melanoma
# [49] = tested on: NCI-H23 lung
# [50] = tested on: K-562 leukemia
# [51] = tested on: HL-60(TB) leukemia
# [52] = tested on: SK-MEL-28 melanoma
# [53] = tested on: UO-31 renal
# [54] = tested on: KM12 colon
# [55] = tested on: U251 glioblastoma
# [56] = tested on: CAKI-1 renal
# [57] = tested on: LOX IMVI melanoma
# [58] = tested on: SF-539 CNS
structure (smiles),measurement,setting,value
CC[C@@]1(c2ccccc2)C2=C(CC(C)(C)CC2=O)Nc2[nH]ncc21,GI50,[1],> 100 µM
same,TGI,[1],> 100 µM
same,GI50,[2],> 100 µM
same,TGI,[2],> 100 µM
same,GI50,[3],> 100 µM
same,TGI,[3],> 100 µM
same,GI50,[4],50.9 µM
same,TGI,[4],> 100 µM
same,GI50,[5],> 100 µM
same,TGI,[5],> 100 µM
same,GI50,[6],> 100 µM
same,TGI,[6],> 100 µM
same,GI50,[7],> 100 µM
same,TGI,[7],> 100 µM
same,GI50,[8],60 µM
same,TGI,[8],> 100 µM
same,GI50,[9],> 100 µM
same,TGI,[9],> 100 µM
same,GI50,[10],> 100 µM
same,TGI,[10],> 100 µM
same,GI50,[11],45.2 µM
same,TGI,[11],> 100 µM
same,GI50,[12],> 100 µM
same,TGI,[12],> 100 µM
same,GI50,[13],54.7 µM
same,TGI,[13],> 100 µM
same,GI50,[14],> 100 µM
same,TGI,[14],> 100 µM
same,GI50,[15],> 100 µM
same,TGI,[15],> 100 µM
same,GI50,[16],98.6 µM
same,TGI,[16],> 100 µM
same,GI50,[17],> 100 µM
same,TGI,[17],> 100 µM
same,GI50,[18],> 100 µM
same,TGI,[18],> 100 µM
same,GI50,[19],> 100 µM
same,TGI,[19],> 100 µM
same,GI50,[20],> 100 µM
same,TGI,[20],> 100 µM
same,GI50,[21],> 100 µM
same,TGI,[21],> 100 µM
same,GI50,[22],> 100 µM
same,TGI,[22],> 100 µM
same,GI50,[23],> 100 µM
same,TGI,[23],> 100 µM
same,GI50,[24],> 100 µM
same,TGI,[24],> 100 µM
same,GI50,[25],> 100 µM
same,TGI,[25],> 100 µM
same,GI50,[26],> 100 µM
same,TGI,[26],> 100 µM
same,GI50,[27],> 100 µM
same,TGI,[27],> 100 µM
same,GI50,[28],> 100 µM
same,TGI,[28],> 100 µM
same,GI50,[29],> 100 µM
same,TGI,[29],> 100 µM
same,GI50,[30],> 100 µM
same,TGI,[30],> 100 µM
same,GI50,[31],30.8 µM
same,TGI,[31],> 100 µM
same,GI50,[32],66.9 µM
same,TGI,[32],> 100 µM
same,GI50,[33],35 µM
same,TGI,[33],> 100 µM
same,GI50,[34],> 100 µM
same,TGI,[34],> 100 µM
same,GI50,[35],> 100 µM
same,TGI,[35],> 100 µM
same,GI50,[36],> 100 µM
same,TGI,[36],> 100 µM
same,GI50,[37],> 100 µM
same,TGI,[37],> 100 µM
same,GI50,[38],38.8 µM
same,TGI,[38],> 100 µM
same,GI50,[39],56.9 µM
same,TGI,[39],> 100 µM
same,GI50,[40],> 100 µM
same,TGI,[40],> 100 µM
same,GI50,[41],> 100 µM
same,TGI,[41],> 100 µM
same,GI50,[42],> 100 µM
same,TGI,[42],> 100 µM
same,GI50,[43],66.3 µM
same,TGI,[43],> 100 µM
same,GI50,[44],> 100 µM
same,TGI,[44],> 100 µM
same,GI50,[45],> 100 µM
same,TGI,[45],> 100 µM
same,GI50,[46],64.6 µM
same,TGI,[46],> 100 µM
same,GI50,[47],> 100 µM
same,TGI,[47],> 100 µM
same,GI50,[48],> 100 µM
same,TGI,[48],> 100 µM
same,GI50,[49],> 100 µM
same,TGI,[49],> 100 µM
same,GI50,[50],> 100 µM
same,TGI,[50],> 100 µM
same,GI50,[51],46.3 µM
same,TGI,[51],> 100 µM
same,GI50,[52],> 100 µM
same,TGI,[52],> 100 µM
same,GI50,[53],47.1 µM
same,TGI,[53],> 100 µM
same,GI50,[54],> 100 µM
same,TGI,[54],> 100 µM
same,GI50,[55],96.6 µM
same,TGI,[55],> 100 µM
same,GI50,[56],> 100 µM
same,TGI,[56],> 100 µM
same,GI50,[57],> 100 µM
same,TGI,[57],> 100 µM
same,GI50,[58],> 100 µM
same,TGI,[58],> 100 µM
